Literature values, collected in US6569404B1, “Phase shift colloids as ultrasound contrast agents” (priority 1993, dated 2003).
Like-named read-outs stand apart in the source and are kept apart here.

Details: cited from earlier work
[1] = Chemical List of low boiling liquids, Example 45
[2] = boiling point under standard pressure conditions, chemical list arranged by total atoms

CCN(C)C [Dimethyl ethyl amine]
Boiling Point [1]: 36.0 degrees Celcius

N#N [Nitrogen (N2)]
Boiling Point [1]: −196.0 degrees Celcius

CN(C)C [Trimethyl amine]
Boiling Point [1]: 2.9 degrees Celcius

FCBr [Methane, bromo fluoro]
Boiling Point [1]: 19.0 degrees Celcius

[F][W]([F])([F])([F])([F])[F] [Tungsten hexafluoride]
Boiling Point [1]: 17.5 degrees Celcius

FC(F)I [difluoro-iodo-methane]
Boiling Point [2]: 21.6 degrees Celcius

FC(F)=C(F)C(F)(F)F [Propylene, perfluoro]
Boiling Point [1]: −29.4 degrees Celcius

O=C(Cl)c1c(Cl)c(Cl)c(Cl)c(Cl)c1Cl [Benzoyl chloride, pentachloro]
Boiling Point [1]: 5.0 degrees Celcius

CC(C)C(F)(F)F [Example 2-Trifluoromethyl-propane, 2-Trifluoromethyl-propane]
Boiling Point [2]: 13 degrees Celcius

CCC[Si](F)(F)F [trifluoro-propyl-silane]
Boiling Point [2]: 25 degrees Celcius

COC.Cl [Dimethyloxonium chloride]
Boiling Point [1]: −2.0 degrees Celcius

[Kr] [Krypton]
Boiling Point [1]: −153.0 degrees Celcius

CC[Si](F)(F)F [ethyl-trifluoro-silane]
Boiling Point [2]: −4.4 degrees Celcius

CSC [dimethyl sulfide]
Boiling Point [2]: 36 degrees Celcius

[Xe] [Xenon]
Boiling Point [1]: −108.0 degrees Celcius

O=[N+]([O-])C(F)(F)Cl [Methane, chloro difluoro nitro]
Boiling Point [1]: 25.0 degrees Celcius

FCCC(F)(F)F [1,1,1,3-tetrafluoro-propane]
Boiling Point [2]: 29.4 degrees Celcius

[Ar] [Argon]
Boiling Point [1]: −189.4 degrees Celcius

FCF [Methane, difluoro]
Boiling Point [1]: −51.6 degrees Celcius

O=[N+]([O-])C(F)(F)F [Methane, nitro-trifluoro]
Boiling Point [1]: −31.1 degrees Celcius

O=NC(F)(F)F [Methane, nitroso-trifluoro]
Boiling Point [1]: −84.0 degrees Celcius

C#CC(C)C [Acetylene, isopropyl]
Boiling Point [1]: 0.0 degrees Celcius

C=COCC [Ethyl vinyl ether]
Boiling Point [1]: 35.0 degrees Celcius

CCC=C(F)F [1,1-difluoro-but-1-ene]
Boiling Point [2]: 3.71 degrees Celcius

FC(F)(F)C(F)(F)C(F)(F)F [Propane, perfluoro]
Boiling Point [1]: −36.0 degrees Celcius

O=C(O)c1c(Cl)c(Cl)c(Cl)c(Cl)c1C(=O)O [Phthalic acid, tetrachloro]
Boiling Point [1]: 2.0 degrees Celcius

FC(Cl)(Cl)Cl [Methane, trichlorofluoro]
Boiling Point [1]: 23.7 degrees Celcius

FC(F)=C(F)C(F)(F)C(F)(F)C(F)(F)F [1-Pentene, perfluoro]
Boiling Point [1]: 29.0 degrees Celcius

CCN [Ethyl amine]
Boiling Point [1]: 16.6 degrees Celcius

FC(F)(F)SCl [Methanesulfenylchloride, trifluoro]
Boiling Point [1]: −0.7 degrees Celcius

O=NCl [Nitrosyl chloride]
Boiling Point [1]: −5.5 degrees Celcius

O=[N+]([O-])C(F)(F)C(F)(F)C(F)(F)F [Propane, heptafluoro-1-nitro]
Boiling Point [1]: 25.0 degrees Celcius

C#CC=C [Vinyl acetylene]
Boiling Point [1]: 5.1 degrees Celcius

C1CC1 [Cyclopropane]
Boiling Point [1]: −32.7 degrees Celcius

C=CC=C(F)F [1,1-difluoro-buta-1,3-diene]
Boiling Point [2]: 3.5 degrees Celcius

C=CC(=C)C [Isoprene]
Boiling Point [1]: 34.0 degrees Celcius

FC(F)=C(F)C(F)(F)C(F)(F)F [1-Butene, perfluoro]
Boiling Point [1]: 4.8 degrees Celcius

FC(F)OCC(F)(F)F [Ether, difluoromethyl 2,2,2-trifluoroethyl]
Boiling Point [1]: 28.0 degrees Celcius

CC(C)N [isopropylamine]
Boiling Point [2]: 31.7 degrees Celcius

C=C1C=CC=C1 [Fulvene]
Boiling Point [1]: 7.0 degrees Celcius

C1CC12CC2 [spiropentane]
Boiling Point [2]: 35 degrees Celcius

FC(F)(F)N=NC(F)(F)F [Azomethane, hexafluoro]
Boiling Point [1]: −31.6 degrees Celcius

COC=O [Formic acid, methyl ester]
Boiling Point [1]: 31.5 degrees Celcius

FC(F)(F)I [Methane, iodo-trifluoro]
Boiling Point [1]: −22.5 degrees Celcius

FC(F)(F)C(F)(F)C(F)(C(F)(F)F)C(F)(F)F [nonafluoro-2-trifluoromethyl-butane]
Boiling Point [2]: 30.12 degrees Celcius

FC(F)(Cl)C(F)(F)Cl [1,2-dichloro-tetrafluoro-ethane]
Boiling Point [2]: 3.5 degrees Celcius

COCC(F)(F)F [1,1,1-trifluoro-2-methoxy-ethane]
Boiling Point [2]: 31 degrees Celcius

CCN(C)C [ethyl-dimethyl-amine]
Boiling Point [2]: 36.4 degrees Celcius

C [Methane]
Boiling Point [1]: −164.0 degrees Celcius

C#CC [Propyne]
Boiling Point [1]: −23.2 degrees Celcius

FC(F)(F)Cl [Methane, chloro trifluoro]
Boiling Point [1]: −81.4 degrees Celcius

FC(F)(F)SC(F)(F)F [Trifluoromethyl sulfide]
Boiling Point [1]: −22.2 degrees Celcius

FC(F)Cl [Methane, chloro-difluoro]
Boiling Point [1]: −40.8 degrees Celcius

CCCC(F)(F)F [1,1,1-trifluoro-butane]
Boiling Point [2]: 16.74 degrees Celcius

C=C(C)C [Isobutylene]
Boiling Point [1]: −6.9 degrees Celcius

O=S(=O)(Cl)C(F)(F)F [Methane sulfonyl chloride, trifluoro]
Boiling Point [1]: 31.6 degrees Celcius

[SiH3]C[SiH3] [Methane, disilano]
Boiling Point [1]: 14.7 degrees Celcius

FC(F)(F)C#CC(F)(F)F [2-Butyne, perfluoro]
Boiling Point [1]: −24.6 degrees Celcius

CC1CC1 [methyl-cyclopropane]
Boiling Point [2]: 0.7 degrees Celcius

CCOC [ethyl-methyl ether]
Boiling Point [2]: 6.6 degrees Celcius

CC1CCC(C)C(C)N1 (stereo not shown) [Piperidine,2,3,6-trimethyl]
Boiling Point [1]: 36.0 degrees Celcius

C=C(C)C(F)F [3,3 difluoro-2-methyl-propene]
Boiling Point [2]: 28.1 degrees Celcius

NC=O [formamide]
Boiling Point [2]: 2.18 degrees Celcius

CC(C(F)(F)F)C(F)(F)F [1,1,1,3,3,3-hexafluoro-2-methyl-propane]
Boiling Point [2]: 21.5 degrees Celcius

CN=NC [Azomethane]
Boiling Point [1]: 1.5 degrees Celcius

FCCl [Methane, chloro fluoro]
Boiling Point [1]: −9.1 degrees Celcius

C#CC#C [Diacetylene]
Boiling Point [1]: 22.0 degrees Celcius

O=C=C=C=O [Carbon suboxide]
Boiling Point [1]: 6.8 degrees Celcius

N#CC(F)(F)F [Trifluoroacetonitrile]
Boiling Point [1]: −64.0 degrees Celcius

COC(C)C [Methyl isopropyl ether]
Boiling Point [1]: 32.5 degrees Celcius

O=C=S [Carbonyl sulfide]
Boiling Point [1]: −50.0 degrees Celcius

O=C=O [Carbon dioxide]
Boiling Point [1]: −78.6 degrees Celcius

CC1CC1 [Cyclopropane, methyl]
Boiling Point [1]: 4.0 degrees Celcius

C#CCCC#CC [1,5-Heptadiyne]
Boiling Point [1]: 26.0 degrees Celcius

CC=CC#N [Crotononitrile]
Boiling Point [1]: 12.0 degrees Celcius

FC(=C(F)C(F)(F)F)C(F)(F)F [2-Butene, octafluoro]
Boiling Point [1]: 1.2 degrees Celcius

CC(=O)F [Acetyl fluoride]
Boiling Point [1]: 20.8 degrees Celcius

C=COCC [ethyl-vinyl ether]
Boiling Point [2]: 35 degrees Celcius

C#CCC [Example 1-Butyne, 1-Butyne]
Boiling Point [1]: 8.1 degrees Celcius

C=CCCC [Example 1-Pentene, 1-Pentene]
Boiling Point [1]: 30.0 degrees Celcius

CCC(C)(F)F [2,2 difluoro-butane]
Boiling Point [2]: 30.92 degrees Celcius

Cc1cc2ccccc2c2cc3ccccc3cc12 [1,2-Benzanthracene, 4-methyl]
Boiling Point [1]: 1.0 degrees Celcius

O=C(C(F)(F)F)C(F)(F)F [Acetone, hexafluoro]
Boiling Point [1]: −28.0 degrees Celcius

CCCCB(F)F [butyl-difluoro-borane]
Boiling Point [2]: 35 degrees Celcius

C=CC#CCCCCC [1-Nonene-3-yne]
Boiling Point [1]: 27.0 degrees Celcius

FC(F)(F)SSC(F)(F)F [Dimethyl disulfide, hexafluoro]
Boiling Point [1]: 34.6 degrees Celcius

FC(F)(F)C(F)(F)C(F)(F)C(F)(F)C(F)(F)C(F)(F)C(F)(F)C(F)(F)I [1-Iodoperfluorooctane, reference compound]
Boiling Point (dispersed phase of emulsions of Example 18): 160 °C

C=C(C)C(F)(F)F [3,3,3-trifluoro-2-methyl-propene]
Boiling Point [2]: 6 degrees Celcius

[N-]=[N+]=O [Nitrous oxide]
Boiling Point [1]: −88.5 degrees Celcius

COC [Methyl ether]
Boiling Point [1]: −25.0 degrees Celcius

FC(F)=C=C(F)F [Allene, tetrafluoro]
Boiling Point [1]: −38.0 degrees Celcius
